From PMC9605497, “Potential of Epidermal Growth Factor-like Peptide from the Sea Cucumber Stichopus horrens to Increase the Growth of Human Cells: In Silico Molecular Docking Approach” (Marine Drugs, 2022)

Test system: human melanoma cells (CRL-1872)
Experiment: Cell proliferation assay (cell counting)
Type: cell-based
Settings: for Average cell number: average over 0, 24, 48, 72 and 96 h; for number of cells vs serum-free medium: four days, triplicates; for duration of temporary increment of cell numbers: cell numbers dropped drastically after the medium change
Experimental: Human melanoma cells (CRL-1872) were purchased from ATCC, Rocksville, MD, USA. Cells were cultured in a complete growth medium, which consisted of Minimum Essential Medium (MEM) (Gibco, Waltham, MA, USA) supplemented with 10% fetal bovine serum (FBS) (Invitrogen, Waltham, MA, USA) and 1% antibiotic–antimycotic (Invitrogen, Waltham, MA, USA), in a humidified incubator at 37 °C, equilibrated with 5% CO2. Cells were subcultured every two days until reaching confluency in T25 flask (TPP, Trasadingen, Switzerland) before being seeded in designated plates for specific experiment objectives.
Cells were seeded at 80,000 cells per well in a 24-well plate containing 400 µL of complete growth medium. After 24 h of culture, the medium was removed, washed once with PBS, replaced with serum-free medium and left to culture for another 16 h. The medium was removed and replaced with corresponding treatment medium, each in triplicates; 10 nM and 50 nM of Sh-EGFl-1, 10 nM and 50 nM of rhEGF were used as a positive control and serum-free medium was used as a negative control. Cells were cultured in a single plate to track their growth every 24 h during the four days of experiment. […] A crossed line was made at the bottom of each well to mark the four cell-counting areas that were recorded daily using a microscope digital camera. Cells were counted manually based on the images visualized using ImageJ version 2.0.

| Substance | Average cell numbers (0 h, 10 nM) | Average cell numbers (0 h, 50 nM) | Average cell number (10 nM) | number of cells vs serum-free medium (50 nM) | Average cell number (50 nM) | duration of temporary increment of cell numbers (50 nM) [h] | Average cell numbers (24 h, 10 nM) | Average cell numbers (24 h, 50 nM) | Average cell numbers (48 h, 10 nM) | Average cell numbers (48 h, 50 nM) | Average cell numbers (72 h, 10 nM) | Average cell numbers (72 h, 50 nM) | Average cell numbers (96 h, 10 nM) | Average cell numbers (96 h, 50 nM) | number of cells vs serum-free medium (10 nM) | cell number over time (10 nM, until day 4) | human cell growth (lower concentration, cell proliferation assay) | cell adherence, survival and proliferation (melanoma cells) |
| --- | --- | --- | --- | --- | --- | --- | --- | --- | --- | --- | --- | --- | --- | --- | --- | --- | --- | --- |
| H-MNSDSECPLSHDGYCLHDGVCMYIEALDKYACNCVVGYIGERCQYRDLKWWELR-OH (disulfide) [rhEGF, Recombinant human EGF purchased from Thermo Scientific, reference compound] | 2115 | 1331 | 810 | significantly higher | 1166 | 48 | 712 | 1643 | 399 | 1741 | 497 | 663 | 339 | 438 | – | – | – | – |
| H-NINECFSSPCENQGICQDEIDGYNCVCQPGFTGTHCESSMLNHVI-OH (disulfide) [Sh-EGFl-1, 45 amino acid EGF-like peptide from Stichopus horrens contig 498513, synthesized by Fmoc solid-phase peptide chemistry] | 1781 | 1382 | – | significantly higher | – | 48 | 1413 | 1637 | 1559 | 1753 | 1674 | 1094 | 1816 | 862 | not significantly different compared with the serum-free treatment | increased numbers until the end of the experiment on day 4 | significantly improved | cells are able to maintain their adherent properties, as well as survive and proliferate, albeit rather slowly |
